# From US12415776B2, “Lipid nanoparticle compositions for delivering circular polynucleotides” (Orna Therapeutics, Inc., priority 2021, dated 2025)
# How the values were obtained:
# [1] = tested on: splenic immune cells (T cells, myeloid cells, B cells, NK cells); test: mOX40L expression in splenic immune cells after IV LNP-circular RNA (flow cytometry); format: in vivo, C57BL/6 mice; conditions: 1 mg/kg intravenously, 24 hours, IL:P 5.7, 50:10:38.5:1.5
# Procedure: The ionizable lipid:helper lipid:cholesterol:PEG-lipid molar ratio of these LNPs was 50:10:38.5:1.5. Dialysis of the LNPs were performed using PBS. C57BL/6 female mice (6-8 weeks, n=4) were dosed at either LNP comprising Lipid 1 of Table […] or the Lipid 15 of Table 10f at 1 mg/kg intravenously.
# [2] = tested on: splenic T cells; test: mOX40L expression in splenic T cells after IV LNP-circular RNA; format: in vivo, C57BL/6 mice; conditions: 1 mg/kg intravenously, 24 hours
# Procedure: The ionizable lipid:helper lipid:cholesterol:PEG-lipid molar ratio of these LNPs was 50:10:38.5:1.5. C57BL/6 female mice (6-8 weeks, n=4) were dosed at 1 mg/kg intravenously. At 24 hours, the spleen from the mice were collected for flow cytometry analysis, tested for weight loss and measured for serum alanine aminotransferase (ALT) after blood collection. mOX40L expression was measured in splenic T cells.
compound,measurement,setting,value
CCCCCCCCCCCCC(O)CN(CCCO)CCCCCCCC(=O)OC(CCCCCCCC)CCCCCCCC (centres unmarked) [Lipid 1 of Table 10e],mOX40L transfection in splenic immune cells,[1],comparable or higher levels of mOX40L transfection
same,mOX40L expression in splenic T cells,[2],resulted in expression of mOX40L in splenic T cells
